Data as given in paper PMC7093416, “Selective USP7 inhibition elicits cancer cell killing through a p53-dependent mechanism” (Scientific Reports, 2020).
“And” between values parts separate entries of the source, which are not always exact repeats. Equal values may be shown once.

Test system: panel of 484 cancer cell lines
Experiment: PRISM cancer cell line profiling, 5 days
Format: cell-based
Parameters: Viability: scale not given here; AUC: unit not given beside the values
Experimental: Cancer cell line profiling was performed using the Broad’s PRISM platform. Cell treatment and data analysis were performed as described in Yu et al[42]. Raw Luminex signal was converted to AUC values for each cell line as described. The resulting AUC profile for each compound was modeled against DepMap using the limma package in R[71]. Because hotspot mutation analysis was performed against DepMap, TP53 annotations in Fig. 6c,d are directly from DepMap.

[1] = 8MGBA_CENTRAL_NERVOUS_SYSTEM, pert_dose 6.10E-04
[2] = 253J_URINARY_TRACT, pert_dose 6.10E-04
[3] = 786O_KIDNEY, pert_dose 6.10E-04
[4] = 8305C_THYROID, pert_dose 6.10E-04
[5] = 8505C_THYROID, pert_dose 6.10E-04
[6] = A172_CENTRAL_NERVOUS_SYSTEM, pert_dose 6.10E-04
[7] = ACHN_KIDNEY, pert_dose 6.10E-04
[8] = AN3CA_ENDOMETRIUM, pert_dose 6.10E-04
[9] = ASPC1_PANCREAS, pert_dose 6.10E-04
[10] = BC3C_URINARY_TRACT, pert_dose 6.10E-04
[11] = BECKER_CENTRAL_NERVOUS_SYSTEM, pert_dose 6.10E-04
[12] = BFTC905_URINARY_TRACT, pert_dose 6.10E-04
[13] = BFTC909_KIDNEY, pert_dose 6.10E-04
[14] = BICR6_UPPER_AERODIGESTIVE_TRACT, pert_dose 6.10E-04
[15] = BICR16_UPPER_AERODIGESTIVE_TRACT, pert_dose 6.10E-04

COc1ccc(C2=N[C@@H](c3ccc(Cl)cc3)[C@@H](c3ccc(Cl)cc3)N2C(=O)N2CCNC(=O)C2)c(OC(C)C)c1 [Nutlin-3A]
AUC (8MGBA_CENTRAL_NERVOUS_SYSTEM): 1.128 | MFI 8MGBA_CENTRAL_NERVOUS_SYSTEM [1]: 9934 and 14986 and 8645 and 10478 and 11554 | Viability [1]: 0.9428 | AUC (22RV1_PROSTATE): 1.096 | AUC (42MGBA_CENTRAL_NERVOUS_SYSTEM): 1.109 | MFI 42MGBA_CENTRAL_NERVOUS_SYSTEM (42MGBA_CENTRAL_NERVOUS_SYSTEM, pert_dose 6.10E-04): 4116 and 5824 and 3462 and 5974.5 and 4899 | AUC (253JBV_URINARY_TRACT): 0.9024 | AUC (253J_URINARY_TRACT): 0.9134 | MFI 253J_URINARY_TRACT [2]: 13400 and 14082 and 16791.5 and 16677.5 and 16246 | Viability [2]: 0.9155 | AUC (639V_URINARY_TRACT): 1.087 | AUC (647V_URINARY_TRACT): 1.106 | MFI 647V_URINARY_TRACT (647V_URINARY_TRACT, pert_dose 6.10E-04): 28744 and 33002 and 29259 and 22669.5 and 34567 | AUC (769P_KIDNEY): 0.9079 | AUC (786O_KIDNEY): 1.095 | MFI 786O_KIDNEY [3]: 5233.5 and 8009.5 and 6751 and 6471 and 5976.5 | Viability [3]: 0.8974 | AUC (5637_URINARY_TRACT): 1.131 | MFI 5637_URINARY_TRACT (5637_URINARY_TRACT, pert_dose 6.10E-04): 5164 and 5198 and 5608 and 5118 and 4250 | AUC (8305C_THYROID): 1.086 | MFI 8305C_THYROID [4]: 12807.5 and 11646.5 and 14452 and 19016 and 21699 | Viability [4]: 0.9334 | AUC (8505C_THYROID): 1.09 | MFI 8505C_THYROID [5]: 8489.5 and 8271 and 7453 and 9513 and 9868 | Viability [5]: 1.233 | AUC (2313287_STOMACH): 1.164 | AUC (A101D_SKIN): 0.8317 | AUC (A172_CENTRAL_NERVOUS_SYSTEM): 0.8527 | MFI A172_CENTRAL_NERVOUS_SYSTEM [6]: 9637 and 10480 and 8488 and 7646 and 8288 | Viability [6]: 1.171 | AUC (A204_SOFT_TISSUE): 0.961 | MFI A204_SOFT_TISSUE (A204_SOFT_TISSUE, pert_dose 6.10E-04): 193.5 and 222 and 295.5 and 243.5 and 208 | AUC (A375_SKIN): 0.8657 | MFI A375_SKIN (A375_SKIN, pert_dose 6.10E-04): 6835.5 and 8654.5 and 5268 and 5613 and 4840.5 | Viability (A375_SKIN, pert_dose 6.10E-04): 1.106 | AUC (A549_LUNG): 0.859 | MFI A549_LUNG (A549_LUNG, pert_dose 6.10E-04): 9119 and 8938 and 13071.5 and 13916 and 10911 | Viability (A549_LUNG, pert_dose 6.10E-04): 1.178 | AUC (A673_BONE): 1.118 | AUC (A704_KIDNEY): 0.9164 | AUC (A2058_SKIN): 1.115 | MFI A2058_SKIN (A2058_SKIN, pert_dose 6.10E-04): 18135 and 19395 and 19549.5 and 22935 and 20108 | Viability (A2058_SKIN, pert_dose 6.10E-04): 1.165 | AUC (A2780_OVARY): 0.8149 | MFI A2780_OVARY (A2780_OVARY, pert_dose 6.10E-04): 18911 and 15634 and 16575 and 14170.5 and 15163.5 | AUC (ABC1_LUNG): 1.193 | AUC (ACCMESO1_PLEURA): 1.068 | AUC (ACHN_KIDNEY): 0.8632 | MFI ACHN_KIDNEY [7]: 12459.5 and 11580 and 11974.5 and 13015.5 and 8174 | Viability [7]: 1.255 | AUC (AGS_STOMACH): 1.099 | MFI AGS_STOMACH (AGS_STOMACH, pert_dose 6.10E-04): 33881 and 40936.5 and 34938 and 35658 and 38326 | AUC (AN3CA_ENDOMETRIUM): 1.0825 | MFI AN3CA_ENDOMETRIUM [8]: 6120 and 10572 and 7019 and 6758 and 9328 | Viability [8]: 0.9599 | AUC (ASPC1_PANCREAS): 1.065 | MFI ASPC1_PANCREAS [9]: 18934.5 and 23594 and 20951.5 and 18601 and 21238 | Viability [9]: 1.138 | AUC (BC3C_URINARY_TRACT): 1.147 | MFI BC3C_URINARY_TRACT [10]: 12791.5 and 13915 and 8459 and 10458.5 and 8646 | Viability [10]: 1.328 | AUC (BCPAP_THYROID): 1.122 | AUC (BECKER_CENTRAL_NERVOUS_SYSTEM): 1.117 | MFI BECKER_CENTRAL_NERVOUS_SYSTEM [11]: 24187 and 19210 and 17010 and 22220 and 21019.5 | Viability [11]: 1.525 | AUC (BEN_LUNG): 1.146 | MFI BEN_LUNG (BEN_LUNG, pert_dose 6.10E-04): 7960 and 8798 and 6007 and 9178 and 9972.5 | Viability (BEN_LUNG, pert_dose 6.10E-04): 1.0724 | AUC (BFTC905_URINARY_TRACT): 1.2069 | MFI BFTC905_URINARY_TRACT [12]: 6936 and 8493 and 9950.5 and 8885 and 6674.5 | Viability [12]: 0.7676 | AUC (BFTC909_KIDNEY): 1.167 | MFI BFTC909_KIDNEY [13]: 11810 and 18038 and 14602 and 12914 and 16966 | Viability [13]: 1.223 | AUC (BHT101_THYROID): 1.133 | AUC (BICR6_UPPER_AERODIGESTIVE_TRACT): 1.14 | MFI BICR6_UPPER_AERODIGESTIVE_TRACT [14]: 13342 and 11342 and 11621 and 10074.5 and 14217 | Viability [14]: 1.497 | AUC (BICR16_UPPER_AERODIGESTIVE_TRACT): 1.202 | MFI BICR16_UPPER_AERODIGESTIVE_TRACT [15]: 5443.5 and 5515 and 3801.5 and 7225 and 7467 | Viability [15]: 1.266 | AUC (BICR31_UPPER_AERODIGESTIVE_TRACT): 1.128 | MFI BICR31_UPPER_AERODIGESTIVE_TRACT (BICR31_UPPER_AERODIGESTIVE_TRACT, pert_dose 6.10E-04): 17717 and 15090 and 19092 and 15830 and 14976 | AUC (BICR56_UPPER_AERODIGESTIVE_TRACT): 1.158 | AUC (BT474_BREAST): 1.172 | AUC (BT549_BREAST): 1.133 | AUC (BXPC3_PANCREAS): 1.49 | AUC (CADOES1_BONE): 1.1262 | Viability (CADOES1_BONE, pert_dose 6.10E-04): 1.326 | AUC (CAKI1_KIDNEY): 0.8906 | MFI CAKI1_KIDNEY (CAKI1_KIDNEY, pert_dose 6.10E-04): 21451 and 18142 and 20425 and 19719.5 and 25262.5
